Test results as given in ChEMBL document CHEMBL1153799, “Synthesis of sialic acid derivatives having a C=C double bond substituted at the C-5 position and their glycopolymers” (Bioorg Med Chem Lett, 2009).
The source made the active and inactive calls.

What was measured:
Type in all cases: functional, organism-based
Influenza A virus [1] = test: Inhibition of human Influenza virus A/PR/8/34 (H1N1)-mediated hemagglutinination of erythrocytes; conditions: A/Puerto Rico/8/1934(H1N1)
H3N2 subtype = test: Inhibition of human Influenza virus A/Aichi/2/68(H3N2)-mediated hemagglutinination of erythrocytes; conditions: A/Aichi/2/1968(H3N2)
Influenza A virus [2] = test: Inhibition of duck Influenza A virus A/DK/HK/313/78(H5N3)-mediated hemagglutinination of erythrocytes

Measured: Activity

C=CC(=O)NCCCCCC(=O)N[C@H]1[C@H]([C@H](O)[C@H](O)CO)O[C@](SCCCCCCCCCCCC)(C(=O)O)C[C@@H]1O
active: all assays above

C=CC(=O)NCC(=O)N[C@H]1[C@H]([C@H](O)[C@H](O)CO)O[C@](SCCCCCCCCCCCC)(C(=O)O)C[C@@H]1O
active: all assays above
